Measured values: patent publication US20120058133A1, “INHIBITION OF TRNA SYNTHETASES AND THERAPEUTIC APPLICATIONS THEREOF” (President and Fellows of Harvard College, priority 2009, published 2012)

What was measured:
[1] = tested on: EPRS; assay: Prolyl-tRNA charging by purified EPRS; format: biochemical, rat
Text: FIG. 23E is a graph showing that HF inhibits purified EPRS activity. EPRS was purified from rat liver and assayed for prolyl-tRNA charging activity as previously described (Ting, S. M., Bogner, P. & Dignam, J. D. Isolation of prolyl-tRNA synthetase as a free form and as a form associated with glutamyl-tRNA synthetase. J Biol Chem 267, 17701-17709, (1992)). Data are representative of three separate experiments.
The effects of HF on prolyl-tRNA charging was examined. RRL were supplemented with ^14C-Pro or ^35S-Met in the presence or absence of HF, and total tRNA was isolated (FIG. 23D).

[2] = tested on: MEFs; assay: Total protein synthesis and metabolic activity (Alamar blue) of fibroblasts; format: cell-based, mouse
Protocol: FIG. 26D. HF-inhibition of collagen production is rescued by proline and doesn't affect overall protein synthesis. Cells were pre-incubated with HF with or without proline for 4 hours, and ^35S-methionine and HF with or without proline was added. 24 hours later, conditioned medium and total cell lysate was harvested. New production of Type I procollagen was measured in conditioned medium by Western blot, and bands quantitated using Image J quantitation software. The original blot is shown in FIG. 27; total protein synthesis was measured as TCA-precipitable ^35S in a scintillation counter. Error bars reflect standard deviation of triplicate determinations.
FIG. 29. HF effect on cellular metabolic activity. MEFs were incubated at indicated dose of HF with or without 2 mM proline for 24 hours and tested for metabolic activity using an Alamar blue assay (Invitrogen).

[3] = tested on: TGFβ signaling; assay: Lymphocyte responses to TGFβ (Smad phosphorylation and others); format: cell-based, mouse; conditions: low dose HF; 10 μM SB-431542
Protocol: FIG. 8. […] FIG. 8A is a set of FACS analyses of CD4^+ CD25^− T cells activated in Th1 or Th2 polarizing conditions, either in the presence or absence of TGFβ. DMSO, 10 nM HF, 10 nM MAZ1310, or 10 μM SB-431542 added as indicated at the time of activation. Intracellular cytokine staining was performed on expanded T cells on day 5.
FIG. 8B is a set of FACS analyses of CD8^+ T cells activated in the presence or absence of TGFβ and cultured with DMSO, 10 nM HF, 10 nM MAZ1310, or 10 μM SB-431542. Expanded cells were restimulated on day 5 and intracellular staining was performed.
FIG. 8C is a set of FACS analyses of CFSE-labeled B cells activated by LPS stimulation in the presence or absence of TGFβ plus DMSO, 10 nM HF, 10 nM MAZ1310, or 10 μM SB-431542. Intracellular IL-6 production in B cells restimulated with PMA plus ionomycin, or cell-surface IgA expression was determined 4 days after activation.
FIG. 8D depicts western blot analyses of purified CD4^+ CD25^− T cells treated with DMSO, 40 nM MAZ1310, titrating concentrations of HF (2.5-40 nM) or 10 μM SB-431542 for 30 minutes in complete medium supplemented with 0.1% fetal calf serum. T cells were then activated in the presence or absence of 3 ng/ml TGFβ. Whole cell extracts were prepared after 1 hour of stimulation and western blot analyses were performed using the indicated antibodies. […]

[4] = tested on: luciferase; assay: Standard luciferase assay; format: biochemical; conditions: not shown

Question: Which results are given for `O=C(CC1NCCCC1O)Cn1cnc2cc(Br)c(Cl)cc2c1=O` (racemic) [HF, halofuginone]?
Answer: reconstituted prolyl-tRNA charging reaction with purified EPRS [1]: inhibited this reaction; total metabolic activity of fibroblasts [2]: unaffected; 35S-methionine incorporation into total protein ([2]; doses inhibiting ECM proteins, 24 hours): did not significantly change; TGFβ-induced Smad phosphorylation and other lymphocyte responses to TGFβ [3]: inhibited neither; direct effect on luciferase activity [4]: no direct effect
